Experimental data taken from PMC7252647, “Inhibition of the NAD salvage pathway in schistosomes impairs metabolism, reproduction, and parasite survival” (PLoS Pathogens, 2020).
pIC50: −log10 of the molar value.

System: T1, native SmNACE
T1 construct: native ectoenzyme on the outer tegument of live adult worms (2 male + 2 female per well)
Test: fluorimetric NAD glycohydrolase assay on live adult worms, ε-ADPR release
Format: cell-based, Schistosoma mansoni
Settings: ε-NAD substrate (20 μM in the assay), live worms (2 male + 2 female) in 200 μl HBSS, 37 °C
Source text: fluorimetric NAD glycohydrolase assay on live adult worms, ε-ADPR release on native SmNACE | The IC50 of CMP1 on live parasites is indicated.

SMILES: Cc1occc1C(=O)N/N=C\c1ccc(O)c(O)c1 [CMP1, (Z)-N′-(3,4-Dihydroxybenzylidene)-2-methylfuran-3-carbohydrazide]
- pIC50: 4.11
